Results: ChEMBL document CHEMBL5143687, “Design, synthesis and biological evaluation of hydrogen sulfide-releasing isochroman-4-one derivatives as new antihypertensive agent candidates” (Bioorg Med Chem, 2022)

Experiments:
Aortic ring [1] = test: Vasorelaxant activity in Sprague-Dawley rat aortic rings assessed as reduction in noradrenaline-induced contractions at 100 uM relative to control; format: functional, Thoracic aorta; design: scale not given: the % may be the effect or the level left
Aortic ring [2] = test: Vasorelaxant activity in Sprague-Dawley rat aortic rings assessed as reduction in noradrenaline-induced contractions at 10 uM relative to control; format: functional, Thoracic aorta; design: scale not given: the % may be the effect or the level left
Rattus norvegicus [3] = test: Antihypertensive activity in spontaneous hypertensive rat model assessed as systolic blood pressure at 80 mg/kg, po measured after 2 hr by tail cuff method (reference value: 186.1 +/- 4.6 mmHg); format: functional
Rattus norvegicus [4] = test: Antihypertensive activity in spontaneous hypertensive rat model assessed as systolic blood pressure at 80 mg/kg, po measured after 8 hr by tail cuff method (reference value: 186.1 +/- 4.6 mmHg); format: functional
Rattus norvegicus [5] = test: Antihypertensive activity in spontaneous hypertensive rat model assessed as systolic blood pressure at 80 mg/kg, po measured after 6 hr by tail cuff method (reference value: 186.1 +/- 4.6 mmHg); format: functional
Rattus norvegicus [6] = test: Antihypertensive activity in spontaneous hypertensive rat model assessed as systolic blood pressure at 80 mg/kg, po measured after 1 hr by tail cuff method (reference value: 186.1 +/- 4.6 mmHg); format: functional
Rattus norvegicus [7] = test: Antihypertensive activity in spontaneous hypertensive rat model assessed as systolic blood pressure at 80 mg/kg, po measured after 4 hr by tail cuff method (reference value: 186.1 +/- 4.6 mmHg); format: functional
Aortic ring [8] = test: Vasorelaxant activity in Sprague-Dawley rat aortic rings assessed as reduction in noradrenaline-induced contractions; format: functional, tissue-based; conditions: Thoracic aorta, DDE = dose-dependent effect
CHO = test: Cytotoxicity against CHO cells assessed as cell viability at 100 uM after 24 hrs MTT assay; format: toxicity, cell-based, Cricetulus griseus; conditions: chinese hamster
[9] = Prodrug conversion in sodium phosphate buffer assessed as H2S release in presence of L-cysteine by UV-Vis spectrophotometry; format: ADME
Rattus norvegicus [10] = test: Antihypertensive activity in spontaneous hypertensive rat model assessed as systolic blood pressure at 40 mg/kg, po measured after 1 hr by tail cuff method (reference value: 186.1 +/- 4.6 mmHg); format: functional
Rattus norvegicus [11] = test: Antihypertensive activity in spontaneous hypertensive rat model assessed as systolic blood pressure at 40 mg/kg, po measured after 2 hr by tail cuff method (reference value: 186.1 +/- 4.6 mmHg); format: functional
Rattus norvegicus [12] = test: Antihypertensive activity in spontaneous hypertensive rat model assessed as systolic blood pressure at 40 mg/kg, po measured after 6 hr by tail cuff method (reference value: 186.1 +/- 4.6 mmHg); format: functional
Rattus norvegicus [13] = test: Antihypertensive activity in spontaneous hypertensive rat model assessed as systolic blood pressure at 40 mg/kg, po measured after 4 hr by tail cuff method (reference value: 186.1 +/- 4.6 mmHg); format: functional
Rattus norvegicus [14] = test: Antihypertensive activity in spontaneous hypertensive rat model assessed as systolic blood pressure at 40 mg/kg, po measured after 8 hr by tail cuff method (reference value: 186.1 +/- 4.6 mmHg); format: functional

Row | Structure (SMILES) | Activity (Aortic ring [1]) [%] | Activity (Aortic ring [2]) [%] | further results
1 | COc1ccc2c(c1OCCCOc1ccc(-c3cc(=S)ss3)cc1)COC(C)C2=O (centres undefined) | 9.2 | 5.4 | –
2 | CC1OCc2c(ccc(O)c2O)C1=O (racemic) | – | – | Activity (Rattus norvegicus [3]): 165.4 mmHg; Activity (Rattus norvegicus [4]): 150.6 mmHg; Activity (Rattus norvegicus [5]): 140.1 mmHg; Activity (Rattus norvegicus [6]): 170.9 mmHg; Activity (Rattus norvegicus [7]): 151.5 mmHg
3 | COc1ccc2c(c1OCCCCCCOc1ccc(C(N)=S)cc1)COC(C)C2=O (centres undefined) | 31.1 | 20 | –
4 | COc1ccc2c(c1OCCCOc1ccc(C(N)=S)cc1)COC(C)C2=O (centres undefined) | 15.7 | 3.7 | –
5 | COc1cc2c(cc1OCCCCCOc1ccc(C(N)=S)cc1)C(=O)C(C)OC2 (centres undefined) | 28.2 | 6.6 | –
6 | COc1ccc2c(c1OCCCCOc1ccc(C(N)=S)cc1)COC(C)C2=O (centres undefined) | 35.1 | 2.9 | –
7 | COc1ccc2c(c1OCCCCCCCCOc1ccc(C(N)=S)cc1)COC(C)C2=O (centres undefined) | 56.9 | 25 | Activity (Aortic ring [8]): Dde; Activity (CHO): Non-Toxic; Activity [9]: Active
8 | COc1ccc2c(c1O)COC(C)C2=O (centres undefined) | 50.7 | 4.3 | –
9 | NC(=S)c1ccc(O)cc1 | 17.3 | 1.7 | –
10 | COc1cc2c(cc1OCCCCCCCCCCCCOc1ccc(C(N)=S)cc1)C(=O)C(C)OC2 (centres undefined) | 12.5 | 2.2 | –
11 | COc1ccccc1N1CCN(CC(O)COc2cccc3ccccc23)CC1 (centres undefined) [NAFTOPIDIL] | – | – | Activity (Rattus norvegicus [10]): 161.4 mmHg; Activity (Rattus norvegicus [11]): 148.1 mmHg; Activity (Rattus norvegicus [12]): 158.2 mmHg; Activity (Rattus norvegicus [13]): 153.7 mmHg; Activity (Rattus norvegicus [14]): 170.5 mmHg
12 | COc1ccc2c(c1OCCOc1ccc(C(N)=S)cc1)COC(C)C2=O (centres undefined) | 31.4 | 19.8 | –
13 | COc1ccc2c(c1OCCOc1ccc(-c3cc(=S)ss3)cc1)COC(C)C2=O (centres undefined) | 18.2 | 5.5 | –
14 | COc1cc2c(cc1OCCCOc1ccc(C(N)=S)cc1)C(=O)C(C)OC2 (centres undefined) | 61.8 | 45.4 | Activity (Aortic ring [8]): Dde; Activity (CHO): Non-Toxic
15 | COc1cc2c(cc1O)C(=O)C(C)OC2 (centres undefined) | 6.5 | 0.4 | –
16 | COc1ccc2c(c1OCCCCCOc1ccc(C(N)=S)cc1)COC(C)C2=O (centres undefined) | 55.4 | 30.2 | Activity (Aortic ring [8]): Dde; Activity (CHO): Non-Toxic; Activity [9]: Active
17 | COc1cc2c(cc1OCCCCCCOc1ccc(C(N)=S)cc1)C(=O)C(C)OC2 (centres undefined) | 66.7 | 49.6 | Activity (Aortic ring [8]): Dde; Activity (Rattus norvegicus [3]): 137.4 mmHg; Activity (CHO): Non-Toxic; Activity (Rattus norvegicus [4]): 169.4 mmHg; Activity (Rattus norvegicus [5]): 153.6 mmHg; Activity (Rattus norvegicus [6]): 170.2 mmHg; Activity [9]: Active; Activity (Rattus norvegicus [7]): 142.2 mmHg
18 | [Na+].[SH-] [SODIUM HYDROSULFIDE] | 52.9 | 18.7 | –
19 | COc1ccc2c(c1OCCCCCCCCCCCCOc1ccc(C(N)=S)cc1)COC(C)C2=O (centres undefined) | 25 | 12.6 | –
20 | COc1cc2c(cc1OCCCCOc1ccc(C(N)=S)cc1)C(=O)C(C)OC2 (centres undefined) | 4.3 | 5.1 | –
21 | COc1cc2c(cc1OCCCCCCCCOc1ccc(C(N)=S)cc1)C(=O)C(C)OC2 (centres undefined) | 31.2 | 19.9 | –
